# Values of other authors in patent US20140161820A1, “Short-Term Surrogate Test for Investigative Drugs” (priority 2012, published 2014).
# Assays:
# platelets = conditions: in vivo
# [1] = target: T1, cholesteryl ester transfer protein (CETP) (Homo sapiens, UniProt P11597); conditions: phase III, treatment group receiving a combination of atorvastatin (Lipitor) and torcetrapib
# T1 construct: host or cells: human trial subjects (endogenous plasma CETP)
# T1 sequence (P11597 18-493): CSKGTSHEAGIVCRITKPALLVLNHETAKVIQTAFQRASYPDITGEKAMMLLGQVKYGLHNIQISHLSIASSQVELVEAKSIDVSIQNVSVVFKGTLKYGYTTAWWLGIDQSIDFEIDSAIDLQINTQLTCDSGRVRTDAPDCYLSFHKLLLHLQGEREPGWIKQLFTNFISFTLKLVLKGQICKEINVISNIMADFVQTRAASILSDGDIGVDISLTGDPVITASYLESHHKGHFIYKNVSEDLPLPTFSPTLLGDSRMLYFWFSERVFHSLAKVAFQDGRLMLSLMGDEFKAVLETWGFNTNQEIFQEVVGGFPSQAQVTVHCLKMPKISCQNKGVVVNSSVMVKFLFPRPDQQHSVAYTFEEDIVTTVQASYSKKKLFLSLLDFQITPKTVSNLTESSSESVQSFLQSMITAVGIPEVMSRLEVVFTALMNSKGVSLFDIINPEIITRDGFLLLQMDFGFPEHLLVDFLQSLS
Compound,time by which anti-platelet effects are measurable (platelets),all-cause mortality [1]
CC(=O)Oc1ccccc1C(=O)O [aspirin],≤ 60 min,
CCOC(=O)N1c2ccc(C(F)(F)F)cc2[C@@H](N(Cc2cc(C(F)(F)F)cc(C(F)(F)F)c2)C(=O)OC)C[C@H]1CC [torcetrapib],,excessive all-cause mortality
